# In PMC4474554 (PLoS ONE, 2015):
# Values joined by “and” are separate entries in the source; they are usually repeats but may differ in a detail not shown here. Equal entries are not always repeated. “Also recorded” adds a separate entry of the source. Where two headings read alike, the source gives them in different places.
# How the values were obtained:
# [1] = tested on: IGF-1R; design: method as in earlier work; conditions: updated data; cited from earlier work
# [2] = tested on: Flt-1; design: method as in earlier work; conditions: updated data; cited from earlier work
# [3] = tested on: FGFR-1; conditions: updated data; cited from earlier work
# [4] = tested on: HER2; conditions: updated data; cited from earlier work
# [5] = tested on: phospho-IGF-IR; assay: Western blotting, IGF-IR phosphorylation after serum-starvation; assay type: cell-based; conditions: PC-9, RPC-9, NCI-H1299, NCI-H1819; regardless of IGF-I ligand stimulation; TAE226 two hours
# Description: (§1) Next, they were washed out with cold PBS and lysed in 1 × cell lysis buffer [20 mM Tris-HCl (pH 7.5), 150 mM NaCl, 1 mM Na2EDTA, 1 mM EGTA, 1% Triton, 2.5 mM sodium pyrophosphate, 1 mM beta-glycerophosphate, 1 mM Na3VO4, 1 μg/ml leupeptin] (Cell signaling Technology) supplemented with Complete, Mini (Roche, Basel, Switzerland) to extract protein. After the protein concentration was measured, equal amounts of total protein (30 μg) were separated by SDS-PAGE and transferred to PVDF membranes. The proteins on membranes were incubated overnight at 4°C with the primary antibodies. The following secondary antibodies were used: goat antirabbit or antimouse IgG-conjugated horseradish peroxidase (HRP) (Santa Cruz Biotechnology, Santa Cruz, CA). To detect specific signals, the membranes were incubated by ECL plus Western Blotting Detection Reagents (Amersham Biosciences UK Limited, Buckinghamshire, UK).
# [6] = tested on: phospho-FAK; assay: Western blotting, FAK phosphorylation in NSCLC cell lines; assay type: cell-based
# Description: as §1
# [7] = tested on: NCI-H2228; assay: MTS assay, NCI-H2228
# [8] = tested on: PC-9 xenograft; assay: PC-9 xenograft mouse model; assay type: in vivo, BALB/c-nu/nu female nude mice; conditions: oral, once a day, 14 days, 30, 60 and 90 mg/kg, dose-dependent
# Description: (§2) In this experiment, we used BALB/c-nu/nu female nude mice at 4–6 weeks of age that were purchased from Charles River Laboratories Japan, Inc (Yokohama, Japan). They were maintained under specific-pathogen-free conditions in accordance with the guidelines of the Animal Care and Use Committee at Okayama University. […] Every three days, body weight of the mice and the major axis and minor axis of each tumor were measured and calculated tumor volume using the following formula; (major axis) × (minor axis)^2 × 1/2 [37, 38]. For the 14 days, tumor volume, tumor growth rate and the body weight were analyzed as an average of the each group.
# [9] = tested on: PKB/AKT; design: method as in earlier work; conditions: updated data; cited from earlier work
# [10] = tested on: RPC-9 xenograft; assay: RPC-9 xenograft mouse model; assay type: in vivo, BALB/c-nu/nu female nude mice; conditions: oral, once a day, 14 days, 30, 60 and 90 mg/kg, dose-dependent
# Description: as §2
# [11] = tested on: Flt-4; design: method as in earlier work; conditions: updated data; cited from earlier work
# [12] = tested on: NCI-H1819; assay: MTS assay, NCI-H1819
# [13] = tested on: c-Met; conditions: updated data; cited from earlier work
# [14] = tested on: NCI-H1993; assay: MTS assay, NCI-H1993
# [15] = tested on: c-Src; conditions: updated data; cited from earlier work
# [16] = tested on: Syk; design: method as in earlier work; conditions: updated data; cited from earlier work
# [17] = tested on: PDK1; design: method as in earlier work; conditions: updated data; cited from earlier work
# [18] = tested on: NCI-H1975; assay: MTS assay, NCI-H1975
# [19] = tested on: phospho-EGFR and downstream AKT, MAPK; assay: Western blotting, EGFR, AKT and MAPK phosphorylation in NSCLC cell lines; assay type: cell-based
# Description: as §1
# [20] = tested on: NCI-H1648; assay: MTS assay, NCI-H1648
# [21] = tested on: FAK; design: method as in earlier work; conditions: updated data; cited from earlier work
# [22] = tested on: KDR; design: method as in earlier work; conditions: updated data; cited from earlier work
# [23] = tested on: NCI-H3255; assay: MTS assay, NCI-H3255
# [24] = tested on: Insulin-R; design: method as in earlier work; conditions: updated data; cited from earlier work
# [25] = tested on: JAK-2; design: method as in earlier work; conditions: updated data; cited from earlier work
# [26] = tested on: CDK1/cyclin B; design: method as in earlier work; conditions: updated data; cited from earlier work
# [27] = tested on: phospho-EGFR and phospho-AKT; assay: Western blotting, EGFR and AKT phosphorylation in transfected HEK-293T; assay type: cell-based; conditions: HEK-293T cell with the mutant EGFR (L858R)
# Description: as §1
# [28] = tested on: FGFR-3 (K650E); design: method as in earlier work; conditions: updated data; cited from earlier work
# [29] = EGFR-mutant cell lines PC-9, HCC827, NCI-H1975, RPC-9
compound,measurement,setting,value
CNC(=O)c1ccccc1Nc1nc(Nc2ccc(N3CCOCC3)cc2OC)ncc1Cl [TAE226],IC50,[1],[…]
same,IC50,[4],950 nM
same,phosphorylation of IGF-IR after serum-starvation,[5],completely inhibited
same,phosphorylation of FAK (Thy397),"[6]; up to a concentration of 5 μM, PC-9, HCC827, NCI-H1975, RPC-9, NCI-H1299, NCI-H1819",not significantly inhibited; also recorded: not suppressed
same,IC50,"[7]; read-out: IC50 (μM) (mean ± SD), NCI-H2228, EML4-ALK fusion Variant 3, MTS, TAE226 48 hours, gefitinib 72 hours",0.28 ± 0.001 µM
same,IC50,"[7]; read-out: each IC50, NCI-H2228, independent MTS assays",0.28 µM
same,IC50,"[7]; read-out: mean IC50, NCI-H2228, mean of independent MTS assays",0.28 µM
same,tumor volume / tumor growth compared with vehicle-treated mice,[8],significantly decreased; also recorded: significantly inhibited
same,IC50,[9],> 10000 nM
same,tumor volume / tumor growth compared with vehicle-treated mice,[10],significantly decreased; also recorded: significantly inhibited
same,IC50,[11],220 nM
same,IC50,"[12]; read-out: IC50 (μM) (mean ± SD), NCI-H1819, HER2 amplification, MTS, TAE226 48 hours, gefitinib 72 hours",3.8 ± 0.4 µM
same,IC50,"[12]; read-out: each IC50, NCI-H1819, independent MTS assays",4 µM and 3.2 µM and 4.1 µM
same,IC50,[13],160 nM
same,IC50,"[14]; read-out: IC50 (μM) (mean ± SD), NCI-H1993, MET amplification, MTS, TAE226 48 hours, gefitinib 72 hours",0.89 ± 0.001 µM
same,IC50,"[14]; read-out: each IC50, NCI-H1993, independent MTS assays",0.89 µM
same,IC50,"[14]; read-out: mean IC50, NCI-H1993, mean of independent MTS assays",0.89 µM
same,IC50,[15],910 nM
same,IC50,[17],> 10000 nM
same,IC50,"[18]; read-out: IC50 (μM) (mean ± SD), NCI-H1975, EGFR Exon 21 (L858R) + T790M, MTS, TAE226 48 hours, gefitinib 72 hours",0.17 ± 0.02 µM
same,phosphorylation of EGFR,[19]; [29],predominantly inhibited
same,phosphorylations of AKT and MAPK,[19]; [29],inhibited
same,"phosphorylations of EGFR, AKT, and MAPK",[19]; cell lines with wild-type EGFR (NCI-H1299 and NCI-H1819),not inhibited
same,IC50,"[20]; read-out: IC50 (μM) (mean ± SD), NCI-H1648, HER2 amplification, MTS, TAE226 48 hours, gefitinib 72 hours",1.7 ± 0.07 µM
same,IC50,"[20]; read-out: each IC50, NCI-H1648, independent MTS assays",1.7 µM and 1.8 µM
same,IC50,"[20]; read-out: mean IC50, NCI-H1648, mean of independent MTS assays",1.7 µM
same,IC50,[21],5.5 nM
same,IC50,"[23]; read-out: IC50 (μM) (mean ± SD), NCI-H3255, EGFR Exon 21 (L858R), MTS, TAE226 48 hours, gefitinib 72 hours",0.12 ± 0.005 µM
same,IC50,"[23]; read-out: each IC50, NCI-H3255, independent MTS assays",0.12 µM and 0.13 µM
same,IC50,"[23]; read-out: mean IC50, NCI-H3255, mean of independent MTS assays",0.12 µM
same,IC50,[24],44 nM
same,IC50,[25],840 nM
same,IC50,[26],540 nM
same,phosphorylations of EGFR and AKT,[27],inhibited
